Paper PMC3423592 (ACS chemical biology, 2012)

Assays:
4T1 cells = assay: 4T1 cell growth in 3D culture; type: cell-based; settings: 3 μM GNF-2 added to 10 μM compound 4
[1] = system: diverse panel of 200 kinases; settings: in this panel; cited from earlier work
c-Src = c-Src (Gallus gallus, UniProt P00523); assay: continuous fluorimetric biochemical inhibition assay, c-Src; design: species or system chicken; settings: read-out: Ki, c-Src; ATP = 100 μM, substrate peptide = 45 μM
[2] = system: diverse panel of 200 kinases; assay: KINOMEscan ATP-site competition binding, diverse kinase panel profiling; settings: 10 μM
MDA-MB-453 = assay: cell growth inhibition assay; type: cell-based; settings: read-out: GI50, MDA-MB-453; 72 h, WST-1
HT-29 = assay: cell growth inhibition assay; type: cell-based; settings: read-out: GI50, HT-29; 72 h, WST-1
NIH-3T3 = assay: cell growth inhibition assay; type: cell-based; settings: read-out: GI50, NIH-3T3; 72 h, WST-1; non-cancer cell line
ErbB3 = ErbB3 (Homo sapiens, UniProt P21860); assay: KINOMEscan profiling, ErbB3; settings: 10 μM
SK-BR-3 = assay: cell growth inhibition assay; type: cell-based; settings: read-out: GI50, SK-BR-3; 72 h, WST-1
ErbB2 = ErbB2 (Homo sapiens, UniProt P04626); assay: KINOMEscan profiling, ErbB2; settings: 10 μM
MCF7 = assay: cell growth inhibition assay; type: cell-based; settings: read-out: GI50, MCF7; 72 h, WST-1

Chain of ErbB3 (P21860 20-1342): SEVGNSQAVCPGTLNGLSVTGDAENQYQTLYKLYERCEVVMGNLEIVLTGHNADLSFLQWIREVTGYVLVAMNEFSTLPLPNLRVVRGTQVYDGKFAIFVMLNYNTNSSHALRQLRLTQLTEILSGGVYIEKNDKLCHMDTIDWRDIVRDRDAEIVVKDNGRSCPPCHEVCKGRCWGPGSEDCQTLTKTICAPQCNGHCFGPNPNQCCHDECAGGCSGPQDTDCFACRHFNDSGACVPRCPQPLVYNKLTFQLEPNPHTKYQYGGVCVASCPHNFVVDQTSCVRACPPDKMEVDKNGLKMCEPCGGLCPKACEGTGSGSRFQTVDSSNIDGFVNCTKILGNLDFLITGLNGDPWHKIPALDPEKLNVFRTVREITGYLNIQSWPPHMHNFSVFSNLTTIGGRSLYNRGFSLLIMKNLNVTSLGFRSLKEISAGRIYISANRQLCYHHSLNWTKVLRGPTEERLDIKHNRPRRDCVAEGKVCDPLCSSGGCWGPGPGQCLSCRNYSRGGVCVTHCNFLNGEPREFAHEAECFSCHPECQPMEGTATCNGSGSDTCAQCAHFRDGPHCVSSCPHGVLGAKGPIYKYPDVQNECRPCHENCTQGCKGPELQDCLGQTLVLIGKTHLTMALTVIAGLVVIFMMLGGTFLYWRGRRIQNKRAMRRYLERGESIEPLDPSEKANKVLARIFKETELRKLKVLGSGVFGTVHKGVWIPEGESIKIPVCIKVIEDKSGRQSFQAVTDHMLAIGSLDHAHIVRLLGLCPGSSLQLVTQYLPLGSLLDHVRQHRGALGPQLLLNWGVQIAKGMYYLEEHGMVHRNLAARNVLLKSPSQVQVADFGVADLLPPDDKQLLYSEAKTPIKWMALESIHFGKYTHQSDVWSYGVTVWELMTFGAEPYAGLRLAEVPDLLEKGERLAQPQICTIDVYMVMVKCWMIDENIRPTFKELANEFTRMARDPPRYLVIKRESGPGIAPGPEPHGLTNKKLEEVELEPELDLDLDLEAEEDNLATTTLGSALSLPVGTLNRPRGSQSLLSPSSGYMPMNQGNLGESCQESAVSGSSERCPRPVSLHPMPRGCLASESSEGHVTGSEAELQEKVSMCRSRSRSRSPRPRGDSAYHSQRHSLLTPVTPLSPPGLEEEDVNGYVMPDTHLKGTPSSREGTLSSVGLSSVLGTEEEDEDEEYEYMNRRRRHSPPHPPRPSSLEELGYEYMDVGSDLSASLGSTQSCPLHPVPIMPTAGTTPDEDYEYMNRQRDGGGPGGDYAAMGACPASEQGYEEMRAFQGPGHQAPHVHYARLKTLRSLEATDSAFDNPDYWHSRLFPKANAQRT
Chain of ErbB2 (P04626 23-1255): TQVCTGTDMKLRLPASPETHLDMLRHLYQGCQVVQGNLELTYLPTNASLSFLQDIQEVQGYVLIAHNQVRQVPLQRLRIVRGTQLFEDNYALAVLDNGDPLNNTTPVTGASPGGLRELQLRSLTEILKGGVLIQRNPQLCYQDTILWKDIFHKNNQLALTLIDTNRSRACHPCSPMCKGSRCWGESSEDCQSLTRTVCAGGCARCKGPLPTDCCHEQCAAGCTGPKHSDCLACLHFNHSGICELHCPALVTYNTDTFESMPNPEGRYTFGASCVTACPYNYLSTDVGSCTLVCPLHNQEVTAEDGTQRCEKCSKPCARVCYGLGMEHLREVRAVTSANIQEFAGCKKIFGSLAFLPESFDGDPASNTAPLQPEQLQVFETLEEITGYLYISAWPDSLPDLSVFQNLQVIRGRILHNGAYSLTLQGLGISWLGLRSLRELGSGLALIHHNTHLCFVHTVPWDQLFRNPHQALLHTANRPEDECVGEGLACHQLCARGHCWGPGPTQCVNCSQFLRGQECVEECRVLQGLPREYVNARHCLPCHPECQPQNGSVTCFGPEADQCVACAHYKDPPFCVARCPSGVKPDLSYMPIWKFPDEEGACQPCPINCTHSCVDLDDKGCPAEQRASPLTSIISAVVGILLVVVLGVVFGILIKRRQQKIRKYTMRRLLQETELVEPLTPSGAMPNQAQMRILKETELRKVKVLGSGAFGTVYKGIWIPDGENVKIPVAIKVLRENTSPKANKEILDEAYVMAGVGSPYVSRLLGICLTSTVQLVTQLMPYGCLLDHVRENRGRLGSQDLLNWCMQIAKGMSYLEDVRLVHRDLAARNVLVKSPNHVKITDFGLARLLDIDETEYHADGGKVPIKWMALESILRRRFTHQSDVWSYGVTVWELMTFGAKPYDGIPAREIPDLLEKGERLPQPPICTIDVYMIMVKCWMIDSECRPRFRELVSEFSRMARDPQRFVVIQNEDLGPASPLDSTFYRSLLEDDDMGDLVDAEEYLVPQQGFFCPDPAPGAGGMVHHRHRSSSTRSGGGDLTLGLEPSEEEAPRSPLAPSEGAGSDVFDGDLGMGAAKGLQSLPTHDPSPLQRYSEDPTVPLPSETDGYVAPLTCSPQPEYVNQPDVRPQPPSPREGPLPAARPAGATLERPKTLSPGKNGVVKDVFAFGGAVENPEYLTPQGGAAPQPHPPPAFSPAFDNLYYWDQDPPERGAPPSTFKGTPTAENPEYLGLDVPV

Which “4T1 cell proliferation in 3D culture, effect of co-dosing” value (4T1 cells) does the source give for NC(=O)c1cccc(-c2cc(Nc3ccc(OC(F)(F)F)cc3)ncn2)c1 [GNF-2] here?
Its value is “mitigates effects of compound 4”.

Which S35 selectivity score [1] does the source give for Cc1nc(Nc2ncc(C(=O)Nc3c(C)cccc3Cl)s2)cc(N2CCN(CCO)CC2)n1 [dasatinib] here?
Its S35 selectivity score is 0.27.

Which results are given for CC(C)(C)n1nc(-c2ccc(Cl)cc2)c2c(N)ncnc21 [PP2]?
Ki (c-Src): 0.033 µM; number of kinases with >95% displacement from an immobilized ligand [2]: 56; number of kinases with >99% displacement from an immobilized ligand [2]: 24; GI50 (MDA-MB-453): 14 µM; GI50 (HT-29): 48 µM; GI50 (NIH-3T3): 17 µM; inhibition of ErbB3 in profiling (ErbB3): significantly inhibits; GI50 (SK-BR-3): > 100 µM; inhibition of ErbB2 in profiling (ErbB2): significantly inhibits; GI50 (MCF7): > 100 µM
